{"source": "patent US9359405B2", "about": "“Antagonists of the interleukin-1 receptor” (Phlogo ApS, priority 2011, dated 2016)", "key": {"IL1RI [1]": {"molecular_target": "T1, IL1RI (Homo sapiens, UniProt P14778)", "T1 construct": "The recombinant protein comprising the whole extracellular part of IIL1RI was immobilised on the surface of a CM5 sensor chip", "experiment": "Kb (s^-1)", "text": "Table printed on a drawing sheet, Figure 3\nHead of the field: Kb (s^-1)\nFirst copying reader's note: Rate and affinity constants for binding to IL1RI; each cell holds the value with its ± error, and Ilantafin is a peptide while ILRa and IL1β are proteins."}, "[2]": {"test_system": "collagen-induced arthritis (CIA)", "experiment": "Collagen-induced arthritis in rats, treatment dpi 8-15 (Example 14)", "format": "in vivo, rat", "conditions": "10.0 mg/kg s.c. daily dpi 8-15", "experimental": "Induction of CIA. The CIA study was performed on a total of 40 male Wistar rats with an average weight of 150 g at the beginning of the experiment. CIA was induced by subcutaneous (s.c.) injection of bovine collagen type II (CII, Sigma-Aldrich) solubilised in 0.05 M acetic acid (2 mg/ml), and then emulsified 1:1 with CFA (Sigma-Aldrich) containing […] heat-inactivated M. tuberculosis. Under inhalation anaesthesia (Isofluran, 3%) 250 μl of the emulsion containing 250 μg of CII and […] was injected (s.c.) at the tail base (post-immunization day, dpi 0).\nTreatment design. At dpi 8, before onset of clinical signs, all animals were randomly divided into two groups, 20 rats per group, and were dosed daily during 8 days (dpi 8-15) with Ilantafin (10.0 mg/kg, s.c.) or vehicle (PBS, 1.0 ml/kg, s.c.). […]\nClinical scores. An observer blinded to treatment groups evaluated the severity of arthritis employing the following grading system: O— no redness or swelling in foot; 1—slight redness in foot or redness and swelling in single interfalangeal joints; 2—moderate swelling and redness in ankle and metatarsal part of foot; 3—marked swelling and redness of entire foot, restricted usage of foot in locomotion; 4—marked swelling and redness of entire foot, impossibility of usage foot in locomotion and rearing. […]"}, "[3]": {"test_system": "cerebellar granule neurons", "experiment": "Neurite outgrowth in primary cerebellar granule neurons", "format": "cell-based, rat", "conditions": "24 h, primary cerebellar neurons", "experimental": "Cerebellar granular neurons (CGN) were prepared from 3 or 7 postnatal (P) day Wistar rats (Charles River, Sulzfeld, Germany or Taconic, Ejby, Denmark). Cerebella were cleared of meninges and blood vessels, roughly homogenized by chopping, and trypsinized with trypsin from Sigma-Aldrich (Brøndby, Denmark). The neurons were washed in the presence of DNAse 1 and soybean trypsin inhibitor (Sigma-Aldrich), and cellular debris was pelleted by centrifugation before plating. CGNs were plated at a density of 10,000 cells/well onto uncoated eight-well Lab-Tek chamber slides (NUNC, Slangerup, Denmark) in Neurobasal-A medium supplemented with 0.4% (w/v) BSA. Peptides or proteins at various concentrations were added to the medium immediately after plating, and cells were maintained at 37° C. and 5% CO2 for 24 h. Cultures then were fixed, blocked and incubated with polyclonal rabbit antibody against rat GAP-43 (Chemicon, Temecula, Calif., USA) followed by incubation with secondary Alexa Fluor488 goat anti-rabbit antibody (Molecular Probes, Eugene, Oreg., USA) as previously described (Neiiendam et al., 2004). The immunostained cultures were all recorded by computer-assisted fluorescence microscopy using a Nikon Diaphot inverted microscope (Nikon, Japan) equipped with a Nikon Plane 20× objective. Images were captured with a charge-coupled device video camera (Grundig Electronics, Nurnberg, Germany) using the software package Prima developed at the Protein Laboratory (University of Copenhagen, Copenhagen, Denmark). The length of neuronal processes per cell was estimated using the software package Process Length developed at the Protein Laboratory (Ronn et al. 2000). For estimation of neurite outgrowth, at least 200±20 cells were processed for each group in each individual experiment."}, "[4]": {"test_system": "IL1β-activated AMJ2-C8 macrophage cells", "experiment": "TNFα secretion by IL1β-activated macrophages (L929/MTS bioassay)", "format": "cell-based", "conditions": "IL1β 1.2 μM", "experimental": "The Ilantafin peptide or IL1Ra or IL1RI was added to cultures of macrophages (AMJ2-C8) seeded in 6-well multi-dishes (Nunc) (2.5×10^5 cells/well). After 24 h of incubation at 37° C., IL1β (1.2 μM) was added to the cultures to activate the macrophages. L929 cells were seeded in a 96-well plate at a density of 2×10^5 cells/mL. Both cell cultures were incubated for 24 h at 37° C. Conditioned medium from the macrophage cultures was collected and added to the fibroblast cultures together with 0.6 μg/well actinomycin. D (Sigma-Aldrich). Finally, after 24 h of incubation at 37° C., 20 μl of 3-(4,5-dimethylthiazol-2-yl)-5-(3-carboxymethoxyphenyl)-2-(4-sulfophenyl)-2H-tetrazolium (MTS) (Promega, Madison, Wis., USA) was added to each well and the plates were incubated protected from light, at 37° C., for ˜45 min and the optical density was measured at 490 nm in a Sunrise absorbance reader (Tecan, Männedorf, Switzerland). In order to calculate the amount of TNF-α in the conditioned medium, a standard curve was obtained by treating fibroblasts with different concentrations of TNF-α (R&D systems, Minneapolis, Minn., USA)."}, "IL1RI [5]": {"molecular_target": "T2, IL1RI (Homo sapiens, UniProt P14778)", "T2 construct": "The recombinant protein comprising the whole extracellular part of IIL1RI was immobilised on the surface of a CM5 sensor chip", "T2 sequence (P14778 18-336 limits assumed)": "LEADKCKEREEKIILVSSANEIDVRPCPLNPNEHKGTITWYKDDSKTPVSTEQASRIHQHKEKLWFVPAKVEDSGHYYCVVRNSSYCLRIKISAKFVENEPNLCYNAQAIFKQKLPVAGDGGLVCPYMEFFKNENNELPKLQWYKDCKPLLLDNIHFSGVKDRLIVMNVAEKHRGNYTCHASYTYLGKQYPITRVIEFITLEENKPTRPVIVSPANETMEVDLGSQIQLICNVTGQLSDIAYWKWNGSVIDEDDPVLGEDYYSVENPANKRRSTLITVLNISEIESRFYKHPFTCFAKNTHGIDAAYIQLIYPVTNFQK", "experiment": "SPR (BiaCore) binding to immobilized IL1RI ectodomain", "conditions": "25° C., pH 7.4", "experimental": "Binding analysis was performed using a BiaCore 2000 Instrument (BiaCore AB, Uppsala, Sweden) at 25° C. using 10 mM sodium phosphate (pH 7.4), 150 mM NaCl as running buffer. The flow-rate was 5 μl/min. Data were analysed by nonlinear curve fitting using the manufacturer's software. The recombinant protein comprising the whole extracellular part of IIL1RI was immobilised on the surface of a CM5 sensor chip by means of electrostatic interactions, and the peptide and the IL1β and IL1Ra proteins were injected at various concentrations. The curves corresponding to the difference between binding to peptides and a blank chip were used for analysis."}}, "note": "No end group written: not given here.", "data": [{"sequence": "SGRKSSKMQA [Ilantafin]", "values": [{"measurement": "koff", "setting": "IL1RI [1]", "value": 0.000753, "unit": "s⁻¹"}, {"measurement": "morbidity (percentage of animals reached clinical index 7)", "setting": "[2]", "value": "significantly reduced morbidity by dpi 12"}, {"measurement": "severity of CIA (clinical score)", "setting": "[2]", "value": "attenuated severity of CIA on dpi 13-15"}, {"measurement": "neurite outgrowth", "setting": "[3]", "value": "induce neurite outgrowth in primary cerebellar neurons in a dose-dependent manner"}, {"measurement": "inhibition of TNFα secretion by IL1β-activated macrophages", "setting": "[4]", "value": "in a dose dependent manner inhibits the IL1β-induced activation of macrophages"}, {"measurement": "affinity of interaction with immobilized ectodomain of IL1RI", "setting": "IL1RI [5]", "value": "within the same order of magnitude as the binding affinities of IL1β and IL1Ra to IL1RI"}]}]}
